One data set deals with S. pneumoniae. Type of data set: cell-based. The procedure:
(§1) MIC assay was carried out by a microtiter broth dilution method as previously described in the NCSLA guidelines (Wiegand, I., Hilpert, K. & Hancock, R. E. Agar and broth dilution methods to determine the minimal inhibitory concentration (MIC) of antimicrobial substances. Nat Protoc 3, 163-175 (2008)). In brief, fresh overnight colonies were suspended to a turbidity of 0.5 units and further diluted in Mueller-Hinton broth (Becton Dickinson). For determination of MIC, peptides were dissolved in water at concentration 10 times higher than the required range by serial dilutions from a stock solution. Ten μl of each concentration was added to each corresponding well of a 96-well microtiter plate (polypropylene, Costar Corp.) and 90 μl of bacteria (1×10^5) in MH medium added. The plate was incubated at 37° C. for 16-18 h. MIC was taken as the lowest concentration where no visual growth of bacteria was detected.

The next data set has as its system S. pyogenes. The class given is cell-based. The following applies: S. pyogenes AP1. The method, then:
as §1

In a further data set the test system is E. faecalis. The experiment in a line: MIC, microtiter broth dilution. The following applies: E. faecalis Clinical isolate 2374. The class given is cell-based. The method, then: as §1
(In general: Broth dilution looks for growth in wells or tubes with falling amounts of substance.)

The next data set deals with P. aeruginosa. Type of data set: cell-based, Pseudomonas aeruginosa. The procedure: as §1
In a further data set the test system is E. coli. The class given is cell-based, Escherichia coli. The method, then:
as §1

The test system of the next data set is S. aureus. Type of data set: cell-based, Staphylococcus aureus. The procedure:
as §1

The next data set has as its system human blood. The following applies: corresponding number for LL-37 (Malmsten et al., in manuscript); cited from earlier work.

Read-outs that look alike come from different tables or passages of the source. No end group written: not given here.

A word on the MIC: it is the lowest concentration found to suppress growth.

Take “ILRWPWWPWRRK-NH2 [Omiganan, reference compound]”: the MIC came to 1.25 µM against S. pneumoniae (S. pneumoniae Clinical isolate I-95); 160 µM with S. pneumoniae (S. pneumoniae Clinical isolate I-104); 10 µM in the data set on S. pneumoniae (S. pneumoniae Clinical isolate PJ1354); 5 µM in the data set with S. pneumoniae (S. pneumoniae D39); 2.5 µM in the data set on S. pneumoniae (S. pneumoniae TIGR4); 5 µM in the data set on S. pyogenes. For the same molecule, the MIC in the data set with E. faecalis is 160 µM; in the data set on P. aeruginosa (P. aeruginosa ATCC 27853), 160 µM; in the data set on P. aeruginosa (P. aeruginosa Clinical isolate 10.5), 40 µM; in the data set on P. aeruginosa (P. aeruginosa Clinical isolate 13.2), 40 µM; against P. aeruginosa (P. aeruginosa Clinical isolate 23.1), 40 µM; against P. aeruginosa (P. aeruginosa Clinical isolate 27.1) it was over 160 µM. Besides, the MIC in the data set with P. aeruginosa (P. aeruginosa Clinical isolate 51.1) was determined as 80 µM; with P. aeruginosa (P. aeruginosa Clinical isolate 62.1), 20 µM; in the data set with P. aeruginosa (P. aeruginosa Clinical isolate 15159) it was 20 µM; with P. aeruginosa (P. aeruginosa Clinical isolate 18488), 20 µM; against E. coli, 20 µM; with E. coli (E. coli Clinical isolate 47.1) it was 20 µM. Also, the MIC in the data set on E. coli (E. coli Clinical isolate 49.1) was found to be 10 µM; with S. aureus (S. aureus ATCC 29213) it was 10 µM; against S. aureus (S. aureus Clinical isolate 1086), 10 µM; with S. aureus (S. aureus Clinical isolate 1088) it was 20 µM; in the data set with S. aureus (S. aureus Clinical isolate 1090), 80 µM; in the data set on S. aureus (S. aureus Clinical isolate 14312), 20 µM. For the same molecule, the MIC with S. aureus (S. aureus Clinical isolate 16065) was 5 µM.
For the molecule `CC[C@H](C)[C@H](NC(=O)[C@H](CCCCN)NC(=O)[C@H](CCC(=O)O)NC(=O)[C@H](CCCCN)NC(=O)[C@H](CO)NC(=O)[C@H](CCCCN)NC(=O)[C@H](CCCNC(=N)N)NC(=O)[C@H](Cc1ccccc1)NC(=O)[C@H](Cc1ccccc1)NC(=O)[C@H](CC(=O)O)NC(=O)CNC(=O)[C@H](CC(C)C)NC(=O)[C@@H](N)CC(C)C)C(=O)NCC(=O)N[C@@H](CCCCN)C(=O)N[C@@H](CCC(=O)O)C(=O)N[C@@H](Cc1ccccc1)C(=O)N[C@@H](CCCCN)C(=O)N[C@@H](CCCNC(=N)N)C(=O)N[C@H](C(=O)N[C@H](C(=O)N[C@@H](CCC(N)=O)C(=O)N[C@@H](CCCNC(=N)N)C(=O)N[C@H](C(=O)N[C@@H](CCCCN)C(=O)N[C@@H](CC(=O)O)C(=O)N[C@@H](Cc1ccccc1)C(=O)N[C@@H](CC(C)C)C(=O)N[C@@H](CCCNC(=N)N)C(=O)N[C@@H](CC(N)=O)C(=O)N[C@@H](CC(C)C)C(=O)N[C@H](C(=O)N1CCC[C@H]1C(=O)N[C@@H](CCCNC(=N)N)C(=O)N[C@H](C(=O)N[C@@H](CCC(=O)O)C(=O)N[C@@H](CO)C(=O)O)[C@@H](C)O)C(C)C)[C@@H](C)CC)C(C)C)[C@@H](C)CC` [LL-37], in the data set with human blood, the “Accompanying hemolysis in infected human blood” value is reported as about 8%.

Values taken from patent publication US9169315B2, “Heparin cofactor II fragments with anti-inflammatory and anti-coagulant activity” (XIMMUNE AB, priority 2009, dated 2015).
